Source: patent publication US7232837B2, “Stereoisomers with high affinity for adrenergic receptors” (McNeil-PPC, Inc., priority 1999, dated 2007)

How the values were obtained:
[1] = tested on: New Zealand white rabbits; assay: Intraocular pressure (IOP) after topical application to the rabbit eye; type: in vivo; conditions: for IOP: mean ± S.E.
Protocol: (§1) These diastereomers were administered topically as either 1% or 2% solutions in buffered saline. Pupillary diameter and IOP were measured in all animals over a six hour time period during the day to minimize diurnal variations in IOP and pupil diameter.
(§2) The experiments were performed on adult male New Zealand white rabbits weighing 3.0–6.0 kg. All rabbits were caged individually and maintained on a 12 hr/12 hr light/dark schedule with free access to food and water. All animal procedures were in conformity with the ARVO Resolution on the Use and Care of Animals in Research. All treated rabbits had served as controls by having received a saline treatment on a different day.
(§3) Only one eye received drug treatment. The contralateral eye served as a control. Saline (or PBS) and drug treated rabbits were treated and observed simultaneously. A single dose was given at time zero and IOP and pupil diameter measured at −1.0, −0.5, 0.5, 1, 3 and 5 hrs post-treatment.
IOP measurements were recorded with an Alcon Applanation Pneumotonograph (Surgical Products Division, Alcon Laboratories, Inc., Ft. Worth, Tex.) in rabbits placed in Lucite restraining cages. Initial topical application of a two drop 0.5% proparacaine HCl (Ophthetic®, Allergan Pharmaceuticals, Inc.) was performed on each rabbit.
(§4) Mean and Standard Error values were used to construct time-response and dose-response curves for the treated and contralateral eye of research rabbits. The data were analyzed statistically by an analysis of variance and a Bonferoni's test for significance. P<0.05 was the accepted level of significance.

[2] = tested on: New Zealand white rabbits; assay: Pupil diameter / mydriasis after topical application to the rabbit eye; type: in vivo; conditions: for Pupil Diameter: mean ± S.E.
Protocol: as §1, §2, §3
Pupil diameter was measured visually at the point of the greatest horizontal diameter with a transparent millimeter ruler. All measurements were made under the identical ambient lighting conditions.
as §4

Swiss-Webster mice [3] = assay: Locomotor stimulant and depressant effects in mice; conditions: i.p.
Protocol: Male Swiss-Webster mice (HSD ND4, Harlan Sprague Dawley, Houston, Tex.) aged 2–3 months were used in these studies. Each dose group consisted of 8 mice. The mice were housed 2 to 4 per cage in 30.4×22.9×15.2 cm clear polycarbonate cages with food and water available ad libitum for at least one week prior to locomotor activity testing. The colony was maintained at 23±1° C., on a normal light-dark cycle beginning at 0700 hr. All testing took place during the light portion of the light-dark cycle.
Horizontal (forward movement) locomotor activity was measured using a standardized, optical activity monitoring system [Model KXYZCM (16), Omnitech Electronics, Columbus, Ohio]. Activity was monitored in forty 40.5×40.5×30.5 cm clear acrylic chambers that where housed in sets of two within larger sound-attenuating chambers. A panel of 16 infrared beams and corresponding photodetectors were spaced 2 cm apart along the sides and 2.4 cm above the floor of each activity chamber. A 7.5-W incandescent light above each chamber provided dim illumination via a rheostat set to 20% of full scale. Fans provided an 80-dB ambient noise level within the chamber.
Triprolidine HCl was obtained from Research Biochemicals International, (Natick, Mass.).
Locomotor stimulant effects. […] (+)-Amphetamine was used as a positive control. The total horizontal distance traversed (cm) was recorded at 10 minute intervals for a 2-hour session. Separate groups of 8 mice were assigned to each dose or saline group, and dose-effect testing continued for each compound until maximal stimulant or depressant effects could be estimated. A separate control group was tested along with each compound.
Using TableCurve 2D v2.03 (Jandel Scientific), the mean average total distance traversed (cm/10 min) for that period was fit to a 3-parameter logistic peak function of log10 dose (with the constant set to the mean of the saline group), and the maximum effect estimated from the resulting curve. The […] (dose producing ½ maximal stimulant activity) was estimated from a linear regression against log10 dose of the ascending portion of the dose-effect curve. The stimulant efficacy was the peak effect of the compound (cm/10 min) as estimated from the logistic peak function, minus the mean control distance traveled (cm/10 min), and was expressed for each stimulant compound as a ratio to the stimulant efficacy determined for (+)-amphetamine.
The mean average total distance traversed (cm/10 min) for that period were fit to a linear function of log10 dose of the descending portion of the dose-effect curve. […] Efficacy was the ratio of maximal depressant effect to maximum possible depression for each compound (mean average total distance of the control group minus the lowest mean total distance, expressed as a ratio to the control group total distance).
(§5) Statistical analysis. Time course data for each compound were considered in 2-way analyses of variance with dose as a between-group and time as a within-group factor. The dose-effect data were considered in 1-way analyses of variance, and planned individual comparisons were conduced between each dose and the saline control group. Interaction studies were considered in 2-way analyses of variance, with Pretreatment and Test dose as the factors.

Swiss-Webster mice [4] = assay: H1 receptor antagonist (triprolidine) interaction study, locomotor activity in mice; conditions: mice pretreated with triprolidine 20 min before the test compound
Protocol: H1 receptor antagonist interaction studies. […] The mice were immediately placed in the activity testing chamber for a 2-h session. Doses of the test compound were selected from the ascending or descending time of the dose-effect curve determined from the compound-alone studies. Eight mice were tested for each triprolidine/test compound combination.
as §5

[5] = 1% topical, drug treated eye (T), 0.5 hr
[6] = 1% topical, drug treated eye (T), 1 hr
[7] = 1% topical, drug treated eye (T), 3 hr
[8] = 1% topical, drug treated eye (T), 5 hr
[9] = 1% topical, drug treated eye (T), −0.5 hr (pre-treatment)
[10] = 1% topical, drug treated eye (T), −1 hr (pre-treatment)
[11] = 1% topical, untreated contralateral eye (U), 0.5 hr
[12] = 1% topical, untreated contralateral eye (U), 1 hr
[13] = 1% topical, untreated contralateral eye (U), 3 hr
[14] = 1% topical, untreated contralateral eye (U), 5 hr
[15] = 1% topical, untreated contralateral eye (U), −0.5 hr (pre-treatment)
[16] = 1% topical, untreated contralateral eye (U), −1 hr (pre-treatment)
[17] = 2% topical, drug treated eye (T), 0.5 hr
[18] = 2% topical, drug treated eye (T), 1 hr
[19] = 2% topical, drug treated eye (T), 3 hr
[20] = 2% topical, drug treated eye (T), 5 hr
[21] = 2% topical, drug treated eye (T), −0.5 hr (pre-treatment)
[22] = 2% topical, drug treated eye (T), −1 hr (pre-treatment)
[23] = 2% topical, untreated contralateral eye (U), 0.5 hr
[24] = 2% topical, untreated contralateral eye (U), 1 hr
[25] = 2% topical, untreated contralateral eye (U), 3 hr
[26] = 2% topical, untreated contralateral eye (U), 5 hr
[27] = 2% topical, untreated contralateral eye (U), −0.5 hr (pre-treatment)
[28] = 2% topical, untreated contralateral eye (U), −1 hr (pre-treatment)
[29] = — denotes absence of significant effect

(−)-norpseudoephedrine
effect on IOP (result in words) ([1]; 1% or 2% topical, rabbit): accompanying increase in IOP
IOP [1, 5]: 17 ± 1.0 mmHg
IOP [1, 6]: 17 ± 1.5 mmHg
IOP [1, 7]: 21 ± 1.6 mmHg
IOP [1, 8]: 18 ± 1.0 mmHg
IOP [1, 9]: 18 ± 1.6 mmHg
IOP [1, 10]: 17 ± 1.0 mmHg
IOP [1, 11]: 21 ± 1.0 mmHg
IOP [1, 12]: 18 ± 1.6 mmHg
IOP [1, 13]: 20 ± 1.9 mmHg
IOP [1, 14]: 23 ± 0.9 mmHg
IOP [1, 15]: 20 ± 1.7 mmHg
IOP [1, 16]: 17 ± 1.5 mmHg
IOP [1, 17]: 15 ± 0.5 mmHg
IOP [1, 18]: 18 ± 0.7 mmHg
IOP [1, 19]: 18 ± 1.1 mmHg
IOP [1, 20]: 18 ± 1.4 mmHg
IOP [1, 21]: 15 ± 0.9 mmHg
IOP [1, 22]: 16 ± 1.9 mmHg
IOP [1, 23]: 16 ± 1.2 mmHg
IOP [1, 24]: 19 ± 1.2 mmHg
IOP [1, 25]: 22 ± 1.5 mmHg
IOP [1, 26]: 21 ± 1.1 mmHg
IOP [1, 27]: 17 ± 0.7 mmHg
IOP [1, 28]: 16 ± 1.0 mmHg
mydriasis / pupil diameter (result in words) ([2]; 1% or 2% topical, rabbit): significant mydriasis
Mydriatic Responses, TREATED EYE ([2]; 1% topical): + (+ = 0–2 mm change)
Mydriatic Responses, UNTREATED EYE ([2]; 1% topical): + (+ = 0–2 mm change)
Pupil Diameter [2, 5]: 6 ± 0.2 mm
Pupil Diameter [2, 6]: 6 ± 0.2 mm
Pupil Diameter [2, 7]: 6 ± 0.2 mm
Pupil Diameter [2, 8]: 6 ± 0.2 mm
Pupil Diameter [2, 9]: 5 ± 0.2 mm
Pupil Diameter [2, 10]: 5 ± 0.2 mm
Pupil Diameter [2, 11]: 6 ± 0.2 mm
Pupil Diameter [2, 12]: 6 ± 0.2 mm
Pupil Diameter [2, 13]: 6 ± 0.2 mm
Pupil Diameter [2, 14]: 6 ± 0.2 mm
Pupil Diameter [2, 15]: 5 ± 0.2 mm
Pupil Diameter [2, 16]: 5 ± 0.2 mm
Mydriatic Responses, TREATED EYE ([2]; 2% topical): ++ (++ = 2–4 mm change)
Mydriatic Responses, UNTREATED EYE ([2]; 2% topical): ++ (++ = 2–4 mm change)
Pupil Diameter [2, 17]: 9 ± 0.4 mm
Pupil Diameter [2, 18]: 9 ± 0.4 mm
Pupil Diameter [2, 19]: 9 ± 0.4 mm
Pupil Diameter [2, 20]: 9 ± 0.4 mm
Pupil Diameter [2, 21]: 6 ± 0.4 mm
Pupil Diameter [2, 22]: 6 ± 0.4 mm
Pupil Diameter [2, 23]: 9 ± 0.4 mm
Pupil Diameter [2, 24]: 9 ± 0.4 mm
Pupil Diameter [2, 25]: 9 ± 0.4 mm
Pupil Diameter [2, 26]: 9 ± 0.4 mm
Pupil Diameter [2, 27]: 6 ± 0.4 mm
Pupil Diameter [2, 28]: 6 ± 0.4 mm
Depression Time: 30-min period following injection in which the maximal depression occurred (Swiss-Webster mice [3]): 10 to 40 min
Stimulation Time: 30-min period following injection in which the maximal stimulant effect occurred (Swiss-Webster mice [3]): 40 to 70 min
locomotor depressant effects, time course (result in words) (Swiss-Webster mice [3]): locomotor depression at an earlier time (10–40 minutes following injection) and with a lower dose range
locomotor stimulant effects, time course (result in words) (Swiss-Webster mice [3]): Dose-dependent increases in locomotor activity of slower onset and longer duration
Depression Potency: dose resulting in ½ the maximal depressant effect (ID50) (Swiss-Webster mice [3]; [29]): 3.9 mg/kg
Stimulation Potency: dose resulting in ½ the maximal stimulant effect (ID50) (Swiss-Webster mice [3]; [29]): 51.1 mg/kg
effect of triprolidine pretreatment on stimulant or depressant effects (Swiss-Webster mice [4]): Significant effects for pretreatment with triprolidine
